Here are results for 5 compounds from article PMC8708274, “Unveiling the Membrane and Cell Wall Action of Antimicrobial Cyclic Lipopeptides: Modulation of the Spectrum of Activity” (Pharmaceutics, 2021).

Data set [1] deals with fresh rabbit erythrocytes. The data set can be described thus: Hemolysis assay. In kind it is cell-based. Conditions: 335 μM lipopeptide, 1 h at 37 °C, 10 mM Tris 80 mM NaCl pH 7.4, absorbance 540 nm, average of three independent experiments. The procedure:
Hemolytic activity was evaluated on fresh rabbit erythrocytes collected in EDTA collection tubes, as previously described. Briefly, an erythrocite suspension in buffer (10 mM Tris, 80 mM NaCl pH 7.4) was obtained by centrifugation (three times, 10 min at 4000 rpm) and adjusted at an optical density of 1 at 540 nm. Aliquots of 200 µL were incubated for 1 h at 37 °C with the different lipopeptides in 96-well polypropylene microtiter plates and centrifuged (15 min, 5000 rpm). Lipopetide-induced hemolysis was determined by measuring the absorbance at 540 nm of released hemoglobin (Asample) in the supernatant. Each determination was done by triplicate, and as negative and positive controls, erythrocytes in buffer (A0%) and in distilled water (A100%) were employed, respectively. Hemolysis was calculated according the following equation: % hemolysis = 100 · (Asample − A0%/A100% − A0%).

The subject of data set [2] is Staphylococcus aureus ATTC 25923. Type of data set: cell-based. The procedure:
(§1) The minimal peptide concentration required to prevent the growth of a given test organism was determined after incubation overnight at 37 °C and was defined as the MIC. Activity was determined in representative bacteria, Escherichia coli ATTC 25922, Pseudomonas aeruginosa ATTC 27853, and Staphylococcus aureus ATTC 25923, using the broth microdilution method. Serial-two-fold dilutions of peptide (from 0.06 to 32 μg/mL) were performed in Mueller–Hinton broth (MHB) culture medium in sterile 96-well polypropylene microtiter plates inoculated with a final concentration of 5 × 10^5 CFU·mL^−1 of bacteria in each well. Bacteria were in the pre-exponential phase. Each determination was done by triplicate. In order to be considered acceptable, the three MIC results have to differ in only in one well, and the result was always given as the higher of the three. Drug-free and microorganism-free wells were used as positive and negative controls, respectively. Bacterial growth was visually determined on the basis of turbidity.

In data set [3] the test system is Escherichia coli ATTC 25922. In kind it is cell-based. On the procedure:
as §1

The subject of data set [4] is Pseudomonas aeruginosa ATTC 27853. Type of data set: cell-based. The procedure:
as §1

Data set [5] in a line: Kinetics of insertion into monolayers. In kind it is binding, Salmonella enterica serotype Minnesota Re 595. Conditions: initial pressure 32 mN·m^−1, peptide 0.48 μM, 25 min after injection, 10 mM Tris pH 7.4, 25 °C, average of three independent experiments (error < 10%). On the procedure:
(§2) Monolayer studies were performed at room temperature (25 °C) on a monolayer system (NIMA Technology, Coventry, UK) by using a cylindrical PTFE (Teflon®, Wilmington, DE, USA) trough (5 cm diameter) containing a continuously stirred aqueous phase (12 mL, 10 mM Tris pH 7.4) and a Wilhelmy platinum plate connected to an electrobalance. The system was enclosed in a Plexiglass box to reduce surface contamination, and before each run, the plate and the trough were cleaned with hot water at >70 °C to avoid carryover of lipid or peptide. Monolayers of POPG, POPE/POPG (6:4), POPC, or LPS were formed by applying small drops of the lipid stock solutions in CHCl3 on the aqueous subphase with a microsyringe (Hamilton Co., Reno, NV, USA) to achieve a surface pressure of 32 mN·m^−1. After 10 min, allowing for solvent evaporation, a known aliquot of peptide was added without disturbance of the monolayer via an inlet port, and the surface pressure was continuously monitored.

Data set [6] can be described thus: Kinetics of insertion into monolayers. In kind it is binding. As to conditions: 25 min after injection, 10 mM Tris pH 7.4, 25 °C, average of three independent experiments (error < 10%); for Increase in surface pressure (Δπ), POPE/POPG: POPE/POPG 6:4, initial pressure 32 mN·m^−1, peptide 0.48 μM; for Increase in surface pressure (Δπ), POPC / Increase in surface pressure (Δπ), POPG: initial pressure 32 mN·m^−1, peptide 0.48 μM. On the procedure:
as §2

Data set [7] concerns Staphylococcus aureus ATTC 25923. Conditions: cited from earlier work. The procedure: C6 analogues are devoid of antibacterial effect both against Gram-positive and Gram-negative bacteria, with MICs higher than 32 μg·mL^−1. C8 analogues show some activity, especially against P. aeruginosa but not on Gram-positive S. aureus. […] For example, MIC of 4 μg·mL^−1 and 2 μg·mL^−1 against P. aeruginosa for spB-3 and spE-3 respectively are obtained, where ... || Since some of the polymyxin analogues also have good activities against S. aureus, the effects on the cell morphology of this Gram-positive bacteria were determined.

The test system of data set [8] is Escherichia coli ATTC 25922. As to conditions: cited from earlier work. On the procedure: Table 1 Sequences and antimicrobial activities of the synthesized peptides determined as minimal inhibitory concentration (MIC) calculated for different bacteria strains. | column: MIC/µg mL^−1 (µM) / EC ^1 || Figure 3 Comparative TEM micrographs of P. aeruginosa (left) and E. coli (right). Untreated bacteria (a,b); bacteria treated with polymyxin analogues at 1xMIC: P. aeruginosa with spB-3 (4 μg·mL^−1) (c), or with of spE-10 (1 μg·mL^−1) (e); E. coli treated with spB-3 (2 μg·mL^−1) (d) or spE-10 (8 μg·mL^−1) (f). Lipopeptides cause the alteration of the membranes, with blebs protruding, loss of membrane, clear cytoplasmic zones, and even ghost cells. Similar results are obtained with natural PxB ((g,h), this last one is adapted from (Rabanal et al. Sci. Rep. 2015).

The subject of data set [9] is Pseudomonas aeruginosa ATTC 27853. Conditions: cited from earlier work. The procedure:
C6 analogues are devoid of antibacterial effect both against Gram-positive and Gram-negative bacteria, with MICs higher than 32 μg·mL^−1. C8 analogues show some activity, especially against P. aeruginosa but not on Gram-positive S. aureus. […] For example, MIC of 4 μg·mL^−1 and 2 μg·mL^−1 against P. aeruginosa for spB-3 and spE-3 respectively are obtained, where ... || Figure 3 Comparative TEM micrographs of P. aeruginosa (left) and E. coli (right). Untreated bacteria (a,b); bacteria treated with polymyxin analogues at 1xMIC: P. aeruginosa with spB-3 (4 μg·mL^−1) (c), or with of spE-10 (1 μg·mL^−1) (e); E. coli treated with spB-3 (2 μg·mL^−1) (d) or spE-10 (8 μg·mL^−1) (f). Lipopeptides cause the alteration of the membranes, with blebs protruding, loss of membrane, clear cytoplasmic zones, and even ghost cells. Similar results are obtained with natural PxB ((g,h), this last one is adapted from (Rabanal et al. Sci. Rep. 2015).

The mark [10] stands for this setting: broth microdilution, MHB, 5 × 10^5 CFU/mL, overnight 37 °C, triplicate, higher of the three.
The mark [11] stands for this setting: value in brackets, broth microdilution, MHB, overnight 37 °C, triplicate.
Where [12] appears, read: taken from the literature (analogues #37, #38, #39).
Setting [13] is: value in brackets, taken from the literature.

Where two headings read alike, the source gives them in different places. Positions of bridges follow the written chain, without caps; N, C: chain ends. Non-standard residues stand in square brackets, D forms with d. Residues, ends and D or L forms follow the SMILES beside them. No end group written: not given here. *: point of attachment. Lauroyl = CCCCCCCCCCCC(=O)*; Decanoyl = CCCCCCCCCC(=O)*; dNle = CCCC[C@@H](N)C(=O)O; X1 = CC[C@H](C)CCCCC(=O)*; Nle = CCCC[C@H](N)C(=O)O; Dab = NCC[C@H](N)C(=O)O

`CC[C@H](C)CCCCC(=O)N[C@@H](CCN)C(=O)N[C@H](C(=O)N[C@@H](CCN)C(=O)N[C@H]1CCNC(=O)[C@H]([C@@H](C)O)NC(=O)[C@H](CCN)NC(=O)[C@H](CCN)NC(=O)[C@H](CC(C)C)NC(=O)[C@@H](Cc2ccccc2)NC(=O)[C@H](CCN)NC1=O)[C@@H](C)O` [PxB, Polymyxin B, reference compound] (X1-[Dab]T[Dab][Dab][Dab][dF]L[Dab][Dab]T; lactam 4-C): the hemolysis in data set [1] is reported as 18%. For the same compound, the “MIC SA” value in data set [2] (setting [10]) is more than 32 µg/mL; in data set [2] (setting [11]), more than 27 µM. Besides, the figures for the “MIC EC” value in data set [3] (setting [10]) and in data set [3] (setting [11]) were 1 µg/mL and 0.83 µM, respectively. Further, the “MIC PA” value is 0.5 µg/mL in [4] (setting [10]) and 0.42 µM in data set [4] (setting [11]). Moreover, in data set [5], the “Increase in surface pressure (Δπ), LPS” value is reported as 11.4 mN·m^−1. Moreover, the “Increase in surface pressure (Δπ), POPE/POPG” value (shortened to “Increase … (Δπ), POPE/POPG”) in data set [6] stood at 7.2 mN·m^−1. Moreover, in data set [6], the “Increase in surface pressure (Δπ), POPC” value worked out at 1.4 mN·m^−1. The “Increase in surface pressure (Δπ), POPG” value in data set [6] was 5.9 mN·m^−1.
In the case of `CCCCCCCCCCCC(=O)N[C@@H](CCN)C(=O)N[C@H](C(=O)N[C@@H](CCN)C(=O)N[C@H]1CSSC[C@H](C(N)=O)NC(=O)[C@H](CCN)NC(=O)[C@H](CCN)NC(=O)[C@H](CC(C)C)NC(=O)[C@@H](CC(C)C)NC(=O)[C@H](CCN)NC1=O)[C@@H](C)O` [spE-4] (Lauroyl-[Dab]T[Dab]C[Dab][dL]L[Dab][Dab][dC]-NH2; disulfide 4-10), the “MIC SA” value came to 6.5 µM in data set [2] (ATTC 25923) and 8 µg/mL in data set [2] (setting [10]). The “MIC EC” value came out at 6.5 µM in data set [3] (ATTC 25922) and 8 µg/mL in data set [3] (setting [10]). For the same compound, the results for the “MIC PA” value in [4] (ATTC 27853) and in data set [4] (setting [10]) were 0.81 µM and 1 µg/mL, respectively. The “Increase in surface pressure (Δπ), LPS” value in [5] worked out at 11.4 mN·m^−1. For the same compound, the “Increase … (Δπ), POPE/POPG” value in [6] is recorded as 9.1 mN·m^−1. Also, in [6], the “Increase in surface pressure (Δπ), POPC” value came to 2.1 mN·m^−1. Besides, the “Increase in surface pressure (Δπ), POPG” value in data set [6] came to 5.8 mN·m^−1.
Turning to `CCCCCCCCCC(=O)N[C@@H](CCN)C(=O)N[C@H](C(=O)N[C@@H](CCN)C(=O)N[C@H]1CSSC[C@H](C(N)=O)NC(=O)[C@H](CCN)NC(=O)[C@H](CCN)NC(=O)[C@H](CCCC)NC(=O)[C@@H](CCCC)NC(=O)[C@H](CCN)NC1=O)[C@@H](C)O` [spE-7] (Decanoyl-[Dab]T[Dab]C[Dab][dNle][Nle][Dab][Dab][dC]-NH2; disulfide 4-10), the “MIC SA” value in data set [2] (setting [10]) was 8 µg/mL; in data set [2] (setting [11]) it was 6.7 µM. Further, the “MIC EC” value in data set [3] (ATTC 25922) stood at 1.7 µM; in data set [3] (setting [10]), 2 µg/mL. For the same compound, the “MIC PA” value in data set [4] (setting [10]) is 2 µg/mL; in data set [4] (setting [11]) it was 1.7 µM. Besides, the “Increase in surface pressure (Δπ), LPS” value in [5] amounted to 14.2 mN·m^−1. For the same compound, the “Increase … (Δπ), POPE/POPG” value in data set [6] is given as 6.8 mN·m^−1. Further, the “Increase in surface pressure (Δπ), POPC” value in data set [6] amounted to 1.4 mN·m^−1. Further, the “Increase in surface pressure (Δπ), POPG” value in data set [6] was 8.2 mN·m^−1.
As for `CCCCCCCCCCCC(=O)N[C@@H](CCN)C(=O)N[C@H](C(=O)N[C@@H](CCN)C(=O)N[C@H]1CSSC[C@H](C(N)=O)NC(=O)[C@H](CCN)NC(=O)[C@H](CCN)NC(=O)[C@H](CCCC)NC(=O)[C@@H](CCCC)NC(=O)[C@H](CCN)NC1=O)[C@@H](C)O` [spE-8] (Lauroyl-[Dab]T[Dab]C[Dab][dNle][Nle][Dab][Dab][dC]-NH2; disulfide 4-10), the “MIC SA” value in [2] (ATTC 25923) amounted to 3.3 µM; in [2] (setting [10]), 4 µg/mL. Moreover, the “MIC EC” value in data set [3] (ATTC 25922) is 3.3 µM; in data set [3] (setting [10]), 4 µg/mL. The “MIC PA” value worked out at 3.3 µM in data set [4] (ATTC 27853) and 4 µg/mL in [4] (setting [10]). Further, the “Increase in surface pressure (Δπ), LPS” value in data set [5] is 12.5 mN·m^−1. Besides, in data set [6], the “Increase … (Δπ), POPE/POPG” value is 9.8 mN·m^−1. For the same compound, the “Increase in surface pressure (Δπ), POPC” value in data set [6] was found to be 1.3 mN·m^−1. Also, the “Increase in surface pressure (Δπ), POPG” value in data set [6] turned out to be 7.4 mN·m^−1.
For “Decanoyl-[Dab]T[Dab]C[Dab]F[Nle][Dab][Dab]C (disulfide 4-10 (inferred)) [spB-7, Series II-PxB analogue, decanoyl, Nle in position 7]”, the “MIC SA” value in data set [7] (setting [12]) is 4 µg/mL; in [7] (setting [13]), 3.2 µM. In addition, the “MIC EC” value was 2 µg/mL in [8] (setting [12]) and 1.6 µM in data set [8] (setting [13]). Moreover, the “Increase in surface pressure (Δπ), LPS” value in data set [5] stood at 9.3 mN·m^−1. Moreover, the “MIC PA” value is 1 µg/mL in data set [9] (setting [12]) and 0.81 µM in [9] (setting [13]). The “Increase … (Δπ), POPE/POPG” value in data set [6] was found to be 6.5 mN·m^−1. Moreover, in data set [6], the “Increase in surface pressure (Δπ), POPC” value is recorded as 2.1 mN·m^−1. Also, the “Increase in surface pressure (Δπ), POPG” value in data set [6] is 4.2 mN·m^−1.
